Results: patent US20110269790A1, “NOVEL THIENOPYRIDINES AS PHARMACOLOGICALLY ACTIVE AGENTS” (priority 2009, published 2011)

Test system: Wistar rats
Assay: Antidiabetic activity by starch loaded model
Format: in vivo, rat
Settings: test compounds 100 mg/kg, Acarbose 10 mg/kg oral
Source text: Experimental Animals—Wistar rats of either sex were used for the present study. Animals selected for use in the study were of uniform age and body weight. A minimum of 40 rats, from which eventually 20 rats were selected. Their body weights were in the range of 150-180 gm. The health status of the animals was ascertained by a veterinary surgeon. […] Animals were acclimatized for at least two weeks prior to start of the study. The animals were provided with pellet diet manufactured by NIN, HYDERABAD, India and drinking water adlibitum.
Compound Preparation The required quantity of the synthetic compounds were weighed and made suspension with gum acacia (2%). The test compounds were administered to all rats by per oral route. Acarbose suspension was also prepared in gum acasia suspension and given by oral route.
Antidiabetic activity by Starch model: The method of Rao et al., 2009;Tiwari et al was employed. Animals were fasted over night (12 hrs). Basal blood glucose levels were estimated for all the animals prior to dosing in test and standard groups. This was designated as “0” min reading. […] After test compounds administration animals in all three groups received Starch aqueous solution (2 gm/kg body weight). Blood glucose levels were monitored at 30, 60, 90 and 120 min after the administration of Starch in all the three groups. The percentage of increase in, blood glucose levels was calculated with respect to the control group at each time point.

C[C@H]1O[C@H](O[C@H]2[C@H](O)[C@@H](O)[C@@H](O[C@H]3[C@H](O)[C@@H](O)C(O)O[C@@H]3CO)O[C@@H]2CO)[C@H](O)[C@@H](O)[C@@H]1N[C@H]1C=C(CO)[C@@H](O)[C@H](O)[C@H]1O (stereo partly drawn) [Acarbose, reference compound]
% Increase in glucose, 30 min (30 min after starch): 23.55% | Blood glucose level, 30 min (30 min after starch, in mg/dL (unit assumed)): 103.17 | % Increase in glucose, 60 min (60 min after starch): 32.03% | Blood glucose level, 60 min (60 min after starch, in mg/dL (unit assumed)): 110.17 | % Increase in glucose, 90 min (90 min after starch): 31.78% | Blood glucose level, 90 min (90 min after starch, in mg/dL (unit assumed)): 109.83 | % Increase in glucose, 120 min (120 min after starch): 30.27% | Blood glucose level, 120 min (120 min after starch, in mg/dL (unit assumed)): 108.62 | Blood glucose level, 0 min (basal, prior to dosing, starch 2 gm/kg, in mg/dL (unit assumed)): 83.50
